Experimental data published in ChEMBL document CHEMBL1142494, “Pharmacophore modeling and molecular docking led to the discovery of inhibitors of human immunodeficiency virus-1 replication targeting the human cellular aspartic acid-glutamic acid-alanine-aspartic acid box polypeptide 3” (J Med Chem, 2008).
Calls of active or inactive are those of the source. The rule behind the calls is not given here.

biological target: Polynucleotide kinase (Enterobacteria phage T4) (UniProt P06855); experiment: Inhibition of T4 polynucleotide kinase upto 100 uM; conditions: Tequatrovirus T4
Sequence (P06855 whole entry): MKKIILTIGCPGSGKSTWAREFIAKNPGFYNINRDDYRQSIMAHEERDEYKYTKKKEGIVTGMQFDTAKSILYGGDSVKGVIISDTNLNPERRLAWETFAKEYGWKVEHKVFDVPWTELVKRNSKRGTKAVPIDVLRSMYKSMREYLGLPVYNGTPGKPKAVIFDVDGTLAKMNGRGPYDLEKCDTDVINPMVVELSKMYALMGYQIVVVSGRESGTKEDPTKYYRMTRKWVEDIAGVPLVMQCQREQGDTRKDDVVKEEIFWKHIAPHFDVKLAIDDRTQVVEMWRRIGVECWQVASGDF

Activity, inactive:
O=C(CCN1C(=O)/C(=C/c2cccc(Br)c2)SC1=S)Nc1ccccc1O

system: Hepacivirus hominis; experiment: Inhibition of HCV NS3 ATPase/helicase upto 100 uM; conditions: not given

Activity, inactive:
O=C(CCN1C(=O)/C(=C/c2cccc(Br)c2)SC1=S)Nc1ccccc1O

biological target: ATP-dependent RNA helicase DDX3X (Homo sapiens) (UniProt O00571); experiment: Inhibition of ATPase activity in human recombinant DDX3 expressed in Escherichia coli by luciferase-based luminescence assay in presence of ATP; conditions: not given
Sequence (O00571 2-662 limits assumed): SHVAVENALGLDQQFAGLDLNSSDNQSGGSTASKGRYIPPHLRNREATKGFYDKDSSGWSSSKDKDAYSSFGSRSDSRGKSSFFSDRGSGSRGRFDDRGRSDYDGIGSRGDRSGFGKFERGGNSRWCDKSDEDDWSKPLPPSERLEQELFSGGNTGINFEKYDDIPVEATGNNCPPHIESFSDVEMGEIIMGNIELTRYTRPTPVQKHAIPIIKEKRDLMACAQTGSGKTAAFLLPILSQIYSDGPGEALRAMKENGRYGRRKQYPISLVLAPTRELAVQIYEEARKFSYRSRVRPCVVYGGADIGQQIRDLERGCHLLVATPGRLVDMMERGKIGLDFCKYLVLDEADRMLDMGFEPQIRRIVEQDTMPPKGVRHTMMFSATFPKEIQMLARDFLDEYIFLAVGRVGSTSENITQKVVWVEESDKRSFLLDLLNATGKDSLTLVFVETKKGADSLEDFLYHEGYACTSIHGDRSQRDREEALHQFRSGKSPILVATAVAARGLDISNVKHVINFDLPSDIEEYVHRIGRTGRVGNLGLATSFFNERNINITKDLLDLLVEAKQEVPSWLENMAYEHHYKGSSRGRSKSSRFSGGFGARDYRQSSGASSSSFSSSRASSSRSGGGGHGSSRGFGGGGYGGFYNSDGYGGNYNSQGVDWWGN

Activity, inactive:
N#C/C(=C\c1ccc(-c2ccccc2Cl)o1)c1nn(-c2ccccc2)c(N)c1C#N
N#C/C(=C\c1ccc(-c2ccc(C(=O)O)cc2)o1)c1n[nH]c(N)c1C#N
O=C(CCN1C(=O)/C(=C/c2ccccc2)SC1=S)Nc1cccc(O)c1
Cc1ccc(/C=C2\SC(=S)N(CCC(=O)Nc3ccccc3O)C2=O)cc1
Cc1ccc(/C=C2\SC(=S)N(CCC(=O)Nc3cccc(Cl)c3O)C2=O)cc1
COc1ccccc1NC(=O)CCN1C(=O)/C(=C/c2cccc(Br)c2)SC1=S
N#C/C(=C\c1ccc(-c2ccccc2[N+](=O)[O-])o1)c1nn(CCO)c(N)c1C#N
O=C(CN1C(=O)/C(=C/c2cccc(Br)c2)SC1=S)Nc1cccc(O)c1
Cc1ccc(-c2ccc(/C=C(\C#N)c3n[nH]c(N)c3C#N)o2)c([N+](=O)[O-])c1
O=C(CCN1C(=O)/C(=C/c2ccccc2)SC1=S)Nc1ccccc1O
O=C(CCN1C(=O)/C(=C/c2ccccc2Cl)SC1=S)Nc1ccccc1O

biological target: Proto-oncogene tyrosine-protein kinase Src (Homo sapiens) (UniProt P12931); experiment: Inhibition of c-Src upto 100 uM; conditions: not given
Sequence (P12931 2-536 limits assumed): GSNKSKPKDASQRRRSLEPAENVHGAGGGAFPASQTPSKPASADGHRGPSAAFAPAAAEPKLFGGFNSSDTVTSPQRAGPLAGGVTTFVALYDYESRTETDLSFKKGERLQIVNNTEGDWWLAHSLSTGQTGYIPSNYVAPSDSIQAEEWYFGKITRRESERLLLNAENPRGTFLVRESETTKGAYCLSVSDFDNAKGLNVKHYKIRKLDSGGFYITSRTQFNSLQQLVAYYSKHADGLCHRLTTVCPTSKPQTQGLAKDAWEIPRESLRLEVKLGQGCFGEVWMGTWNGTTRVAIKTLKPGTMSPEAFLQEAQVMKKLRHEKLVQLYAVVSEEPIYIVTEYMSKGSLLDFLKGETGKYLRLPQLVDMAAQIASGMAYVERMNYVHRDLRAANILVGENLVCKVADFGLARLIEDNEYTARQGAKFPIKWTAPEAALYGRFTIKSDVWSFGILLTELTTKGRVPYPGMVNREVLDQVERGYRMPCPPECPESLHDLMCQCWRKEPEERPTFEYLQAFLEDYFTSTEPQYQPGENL

Activity, inactive:
O=C(CCN1C(=O)/C(=C/c2cccc(Br)c2)SC1=S)Nc1ccccc1O
